Experimental data as given in US20220380319A1 (Bial - R&D Investments, S.A., priority 2019, published 2022).
Converted amounts (≈) assume the structure as drawn.

Columns and labels:
acid ceramidase = target: T1, acid ceramidase (Homo sapiens, UniProt Q13510); test: Acid ceramidase inhibition, biochemical fluorescent assay with cell lysates overexpressing acid ceramidase, substrate Rbm14-12; conditions: substrate Rbm14-12 6.3 μM, pH 4.5
T1 construct: Cell lysates overexpressing acid ceramidase were used as the enzyme source; expressed in transfected cells
T1 sequence (Q13510 22-395): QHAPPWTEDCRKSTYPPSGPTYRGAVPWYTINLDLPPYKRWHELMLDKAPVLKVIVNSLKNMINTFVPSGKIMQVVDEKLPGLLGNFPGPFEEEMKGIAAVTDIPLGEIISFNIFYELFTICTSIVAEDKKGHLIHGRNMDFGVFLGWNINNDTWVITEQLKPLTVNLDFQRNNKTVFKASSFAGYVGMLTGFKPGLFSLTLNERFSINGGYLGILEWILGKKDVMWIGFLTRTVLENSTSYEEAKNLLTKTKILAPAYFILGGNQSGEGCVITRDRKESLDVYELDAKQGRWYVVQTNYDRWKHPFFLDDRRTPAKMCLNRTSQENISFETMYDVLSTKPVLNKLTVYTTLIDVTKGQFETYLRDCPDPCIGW
Method in brief: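 Lysate of cells overexpressing acid ceramidase (10 μg protein) preincubated with compound dose series 1 hr at RT in 25 mM NaAC, 100 mM NaCl, pH 4.5, then reacted 1 hr with 6.3 μM Rbm14-12. Stopped with NaIO4/glycine buffer pH 10.6, fluorescence ex360/em446; IC50 by four-parameter fit.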

[1] = Compound solubility in water

Row | SMILES | IC50 (acid ceramidase) | solubility [1]
1 | COc1nc2ccc(N3CCOCC3)cc2n1C(=O)NCCCc1ccc(F)cc1 [Example 221a] | < 200 nM | 4 µg/mL (≈ 9.7 µM)
2 | COc1nc2cc(N3CCOCC3)ccc2n1C(=O)NCCCc1ccc(F)cc1 [Example 221b] | < 200 nM | 15 µg/mL (≈ 36.4 µM)
3 | CC(=O)N1CCN(c2cccc3c2ncn3C(=O)NCC2(CC(C)C)CC2)CC1 [Example 222, 4-(4-Acetylpiperazin-1-yl)-N-((1-iso-butyl-cyclopropyl)methyl)-1H-benzo[d]imidazole-1-carboxamide] | < 200 nM | 7 µg/mL (≈ 17.6 µM)
4 | CC(=O)N1CCN(c2cccc3c2ncn3C(=O)NCCCCC(C)C)CC1 [Example 223, 4-(4-Acetylpiperazin-1-yl)-N-(5-methylhexyl)-1H-benzo[d]imidazole-1-carboxamide] | < 200 nM | 15 µg/mL (≈ 38.9 µM)
5 | COc1nc2ccc(N3CCOCC3)cc2n1C(=O)NCCCc1ccc(F)cc1F [Example 224a, N-(3-(2,4-Difluorophenyl)propyl)-2-methoxy-6-morpholino-1H-benzo[d]imidazole-1-carboxamide] | < 200 nM | 4 µg/mL (≈ 9.29 µM)
6 | COc1nc2cc(N3CCOCC3)ccc2n1C(=O)NCCCc1ccc(F)cc1F [Example 224b, N-(3-(2,4-difluorophenyl)propyl)-2-methoxy-5-morpholino-1H-benzo[d]-imidazole-1-carboxamide] | < 200 nM | 12 µg/mL (≈ 27.9 µM)
7 | CC(=O)N1CCN(c2cccc3c2ncn3C(=O)NCCCC(F)(F)F)CC1 [Example 225, 4-(4-Acetylpiperazin-1-yl)-N-(4,4,4-trifluorobutyl)-1H-benzo[d]imidazole-1-carboxamide] | < 200 nM | 8 µg/mL (≈ 20.1 µM)
8 | C[C@@H]1CN(c2cccc3c2ncn3C(=O)NCCCC(F)(F)F)C[C@H](C)O1 [Example 226, 4-((2R,6S)-2,6-dimethylmorpholino)-N-(4,4,4-trifluorobutyl)-1H-benzo[d]imidazole-1-carboxamide] | 200 to 1000 nM | 5 µg/mL (≈ 13 µM)
9 | CC(C)CC1(CNC(=O)n2cnc3c(N4CCOCC4)cccc32)CC1 [Example 227, N-((1-iso-Butylcyclopropyl)methyl)-4-morpholino-1H-benzo[d]imidazole-1-carboxamide] | < 200 nM | 16 µg/mL (≈ 44.9 µM)
10 | COc1nc2ccc(N3CCOCC3)cc2n1C(=O)NCCCc1ccco1 [Example 228a, N-(3-(Furan-2-yl)propyl)-2-methoxy-6-morpholino-1H-benzo[d]imidazole-1-carboxamide] | 200 to 1000 nM | 29 µg/mL (≈ 75.4 µM)
11 | COc1nc2cc(N3CCOCC3)ccc2n1C(=O)NCCCc1ccco1 [Example 228b, N-(3-(furan-2-yl)propyl)-2-methoxy-5-morpholino-1H-benzo[d]imidazole-1-carboxamide] | 200 to 1000 nM | 33 µg/mL (≈ 85.8 µM)
12 | COc1nc2ccc(N3CCOCC3)cc2n1C(=O)NCC1(CC2CC2)CC1 [Example 229a, N-((1-(Cyclopropylmethyl)cyclopropyl)-methyl)-2-methoxy-6-morpholino-1H-benzo[d]imidazole-1-carboxamide] | 200 to 1000 nM | 1 µg/mL (≈ 2.6 µM)
13 | COc1nc2cc(N3CCOCC3)ccc2n1C(=O)NCC1(CC2CC2)CC1 [Example 229b, N-((1-(cyclopropylmethyl)cyclopropyl)methyl)-2-methoxy-5-morpholino-1H-benzo[d]imidazole-1-carboxamide] | < 200 nM | 9 µg/mL (≈ 23.4 µM)
14 | COc1nc2ccc(N3CCOCC3)cc2n1C(=O)NCCC1CC1C(F)(F)F (stereo not drawn) [Example 230a, 2-Methoxy-6-morpholino-N-(2-(2-(trifluoromethyl)cyclopropyl)ethyl)-1H-benzo[d]imidazole-1-carboxamide] | 200 to 1000 nM | 26 µg/mL (≈ 63 µM)
15 | COc1nc2cc(N3CCOCC3)ccc2n1C(=O)NCCC1CC1C(F)(F)F (stereo not drawn) [Example 230b, 2-methoxy-5-morpholino-N-(2-(2-(trifluoromethyl)cyclopropyl)-ethyl)-1H-benzo[d]imidazole-1-carboxamide] | 200 to 1000 nM | 32 µg/mL (≈ 77.6 µM)
16 | COc1nc2ccc(N3CCOCC3)cc2n1C(=O)NCC1CC1Cc1ccccc1 (stereo not drawn) [Example 231a, N-((2-benzylcyclopropyl)methyl)-2-methoxy-6-morpholino-1H-benzo[d]imidazole-1-carboxamide] | 200 to 1000 nM | 14 µg/mL (≈ 33.3 µM)
17 | COc1nc2cc(N3CCOCC3)ccc2n1C(=O)NCC1CC1Cc1ccccc1 (stereo not drawn) [Example 231b, N-((2-benzylcyclopropyl)methyl)-2-methoxy-5-morpholino-1H-benzo[d]imidazole-1-carboxamide] | < 200 nM | 13 µg/mL (≈ 30.9 µM)

Row | SMILES | IC50 (acid ceramidase) | solubility [1]
18 | COc1nc2ccc(N3CCOCC3)cc2n1C(=O)NCCCc1ccc(F)nc1 [Example 232a, N-(3-(6-Fluoropyridin-3-yl)propyl)-2-methoxy-6-morpholino-1H-benzo[d]imidazole-1-carboxamide] | > 1000 nM | 25 µg/mL (≈ 60.5 µM)
19 | COc1nc2cc(N3CCOCC3)ccc2n1C(=O)NCCCc1ccc(F)nc1 [Example 232b, N-(3-(6-fluoropyridin-3-yl)propyl)-2-methoxy-5-morpholino-1H-benzo[d]imidazole-1-carboxamide] | > 1000 nM | 25 µg/mL (≈ 60.5 µM)
20 | COc1nc2ccc(N3CCOCC3)cc2n1C(=O)NCCCOC(F)(F)F [Example 233a, 2-Methoxy-6-morpholino-N-(3-(trifluoromethoxy)propyl)-1H-benzo[d]imidazole-1-carboxamide] | 200 to 1000 nM | 30 µg/mL (≈ 74.6 µM)
21 | COc1nc2cc(N3CCOCC3)ccc2n1C(=O)NCCCOC(F)(F)F [Example 233b, 2-methoxy-5-morpholino-N-(3-(trifluoromethoxy)propyl)-1H-benzo[d]imidazole-1-carboxamide] | 200 to 1000 nM | 29 µg/mL (≈ 72.1 µM)
22 | CC(C)C(=O)N1CCN(c2cccc3c2ncn3C(=O)NCCCC2(C(F)(F)F)CC2)CC1 [Example 234, 4-(4-iso-Butyrylpiperazin-1-yl)-N-(3-(1-(trifluoromethyl)cyclopropyl)propyl)-1H-benzo[d]imidazole-1-carboxamide] | < 200 nM | 1 µg/mL (≈ 2.15 µM)
23 | CC(=O)N1CCN(c2cccc3c2ncn3C(=O)NCCCC2(C(F)(F)F)CC2)CC1 [Example 235, 4-(4-Acetylpiperazin-1-yl)-N-(3-(1-(trifluoromethyl)cyclopropyl)propyl)-1H-benzo[d]imidazole-1-carboxamide] | < 200 nM | 20 µg/mL (≈ 45.7 µM)
24 | COc1nc2cc(N3CCN(C(C)=O)CC3)ccc2n1C(=O)NCCCc1ccccc1 [Example 236a, 5-(4-Acetylpiperazin-1-yl)-2-methoxy-N-(3-phenylpropyl)-1H-benzo[d]imidazole-1-carboxamide] | < 200 nM | 18 µg/mL (≈ 41.3 µM)
25 | COc1nc2ccc(N3CCN(C(C)=O)CC3)cc2n1C(=O)NCCCc1ccccc1 [Example 236b, 6-(4-acetylpiperazin-1-yl)-2-methoxy-N-(3-phenylpropyl)-1H-benzo[d]imidazole-1-carboxamide] | < 200 nM | 23 µg/mL (≈ 52.8 µM)
26 | COc1nc2cc(N3[C@@H]4CC[C@H]3COC4)ccc2n1C(=O)NCCCc1ccccc1 [Example 237a, 5-((1R,5S)-3-Oxa-8-azabicyclo[3.2.1]octan-8-yl)-2-methoxy-N-(3-phenylpropyl)-1H-benzo[d]imidazole-1-carboxamide] | < 200 nM | 1 µg/mL (≈ 2.38 µM)
27 | COc1nc2ccc(N3[C@@H]4CC[C@H]3COC4)cc2n1C(=O)NCCCc1ccccc1 [Example 237b, 6-((1R,5S)-3-oxa-8-azabicyclo[3.2.1]octan-8-yl)-2-methoxy-N-(3-phenylpropyl)-1H-benzo[d]imidazole-1-carboxamide] | < 200 nM | 5 µg/mL (≈ 11.9 µM)
28 | COc1nc2ccc(N3CCC4(CC3)COC4)cc2n1C(=O)NCCCc1ccccc1 [Example 238a, 2-Methoxy-N-(3-phenylpropyl)-6-(2-oxa-7-azaspiro[3,5]nonan-7-yl)-1H-benzo[d]imidazole-1-carboxamide] | < 200 nM | 11 µg/mL (≈ 25.3 µM)
29 | COc1nc2cc(N3CCC4(CC3)COC4)ccc2n1C(=O)NCCCc1ccccc1 [Example 238b, 2-methoxy-N-(3-phenylpropyl)-5-(2-oxa-7-azaspiro[3.5]nonan-7-yl)-1H-benzo[d]-imidazole-1-carboxamide] | 200 to 1000 nM | 12 µg/mL (≈ 27.6 µM)
30 | O=C(NCCCc1ccccc1)n1cnc2c(N3CCN4CCCC4C3)cccc21 (stereo not drawn) [Example 239, 4-(Hexahydropyrrolo[1,2-a]pyrazin-2(1H)-yl)-N-(3-phenylpropyl)-1H-benzo[d]imidazole-1-carboxamide] | < 200 nM | 17 µg/mL (≈ 42.1 µM)
31 | CN1[C@@H]2CC[C@H]1CN(c1cccc3c1ncn3C(=O)NCCCc1ccccc1)C2 [Example 240, 4-((1R,5S)-8-Methyl-3,8-diazabicyclo[3.2.1]octan-3-yl)-N-(3-phenylpropyl)-1H-benzo[d]imidazole-1-carboxamide] | 200 to 1000 nM | 28 µg/mL (≈ 69.4 µM)
32 | CN1CC2CCC(C1)N2c1cccc2c1ncn2C(=O)NCCCc1ccccc1 [Example 241, 4-(3-Methyl-3,8-diazabicyclo[3.2.1]octan-8-yl)-N-(3-phenylpropyl)-1H-benzo[d]imidazole-1-carboxamide] | < 200 nM | 25 µg/mL (≈ 62 µM)
33 | CN1C2CC1CN(c1cccc3c1ncn3C(=O)NCCCc1ccccc1)C2 [Example 243, 4-(6-Methyl-3,6-diazabicyclo[3.1.1]heptan-3-yl)-N-(3-phenylpropyl)-1H-benzo[d]imidazole-1-carboxamide] | < 200 nM | 28 µg/mL (≈ 71.9 µM)
